Test results: patent US20220151989A1, “LIPOIC ACID PRODRUG” (SANTEN PHARMACEUTICAL CO., LTD., priority 2019, published 2022)
Several values for one entry are separate records, joined by “and”; a condition that tells them apart may be missing. Equal entries are not always repeated.

Legend:
[1] = test system: anterior segment of the eye; experiment: Ocular Irritation Test-1: modified Draize test and slit lamp examination; type: in vivo, Japanese White rabbit; set-up: key to Irritation Score of anterior segment of the eye: Palpebral conjunctival edema / Irritation Score of anterior segment of the eye: Bulbar conjunctival hyperemia / Irritation Score of anterior segment of the eye: Hyperemia of nictitating membrane / Irritation Score of anterior segment of the eye: Discharge / Slit lamp observation / Irritation Score of anterior segment of the eye: Flare of palpebral conjunctiva: +0.5: very slight; +1: slight; +2: moderate; +3: severe; —: No noteworthy findings; conditions: for slit lamp examination / irritation in anterior segment of the eye: 0.03% and 0.3% eye drops; for irritation in anterior segment of the eye: modified Draize test; for Irritation Score of anterior segment of the eye: Bulbar conjunctival hyperemia / Irritation Score of anterior segment of the eye: Discharge / Irritation Score of anterior segment of the eye: Flare of palpebral conjunctiva / Irritation Score of anterior segment of the eye: Hyperemia of nictitating membrane / Irritation Score of anterior segment of the eye: Palpebral conjunctival edema / Slit lamp observation: 50 μL/eye ten times at 30 minute intervals, 1 hour after last instillation
Method: 0.03% (w/v) and 0.3% (w/v) Compound 1 eye drops, and 0.03% (w/v) and 0.3% (w/v) Compound 3 eye drops were prepared in the same manner as Preparation of Test sample in Pharmacological test-2. Vehicle A was used for a vehicle group. 0.03% (w/v) and 0.3% (w/v) Compound 1 eye drops, 0.03% (w/v) and 0.3% (w/v) Compound 3 eye drops, and the vehicle were each instilled into the left eye of a Japanese White rabbit at a dose of 50 μL/eye with pipette ten times at 30 minute intervals. One hour after the final instillation, ocular irritation of anterior segment of the eye was evaluated according to the modified Draize test, and a slit lamp examination was performed. The contralateral eye was untreated. The ocular irritation of anterior segment of the eye was scored according to the following criteria: +0.5: very slight; +1: slight; +2: moderate; +3: severe

[2] = test system: anterior segment of the eye; experiment: Ocular Irritation Test-2: McDonald-Shadduck method, lens observation, histopathological examination; type: in vivo, Japanese White rabbit; set-up: key to Irritation Score of anterior segment of the eye: Discharge / Irritation Score of anterior segment of the eye: Anterior chamber flare / Irritation Score of anterior segment of the eye: Light reflex / Irritation Score of anterior segment of the eye: Iris / Irritation Score of anterior segment of the eye: Corneal opacity / Irritation Score of anterior segment of the eye: Angiogenesis / Irritation Score of anterior segment of the eye: Corneal epithelial disorder / Lens / Histopathological examination of the eye / Irritation Score of anterior segment of the eye: Conjunctival hyperemia / Irritation Score of anterior segment of the eye: Conjunctival edema: +0.5: very slight; +1: slight; +2: moderate; +3: severe; —: No noteworthy findings; conditions: for Histopathological examination of the eye / Irritation Score of anterior segment of the eye: Angiogenesis / Irritation Score of anterior segment of the eye: Anterior chamber flare / Irritation Score of anterior segment of the eye: Conjunctival edema / Irritation Score of anterior segment of the eye: Conjunctival hyperemia / Irritation Score of anterior segment of the eye: Corneal epithelial disorder / Irritation Score of anterior segment of the eye: Corneal opacity / Irritation Score of anterior segment of the eye: Discharge / Irritation Score of anterior segment of the eye: Iris / Irritation Score of anterior segment of the eye: Light reflex / Lens: 50 μL/eye twice per day for 2 weeks
Method: Compound 1 was stirred with the addition of Vehicle C to give a 0.3% (w/v) solution, and the resulting solution was diluted with Vehicle C to give a 0.1% (w/v) solution. Further, the resulting 0.1% (w/v) solution was diluted with. Vehicle C to give a 0.03% (w/v) solution.
0.03% (w/v), 0.1% (w/v), and 0.3% (w/v) Compound 1 eye drops were each instilled into the left eye of a Japanese White rabbit at a dose of 50 μL/eye with pipette twice per day at a 6-hour interval for 2 weeks. One hour after the final instillation, ocular irritation of anterior segment of the eye was evaluated using a slit lamp according to the McDonald-Shadduck method, and the lens was observed. At the end of the treatment period, histopathological examination of the eye was performed. The contralateral eye was untreated.
The ocular irritation of anterior segment of the eye was scored according to the following criteria:
+1: slight; +2: moderate; +3: severe.

lens elasticity = experiment: Pharmacological Test-4: lens elasticity, once-daily instillation for 2 weeks; type: in vivo, C57BL/6J mice; conditions: for Lens elasticity improvement: once per day for 14 days, 8-month-old mice
Method: The effect of once-daily instillation of Compound 1 for 2 weeks on the lens elasticity was examined.
Compound 1 was stirred with the addition of Vehicle A to give a 0.3% (w/v) emulsion, and the emulsion was diluted with the diluent to give a 0.1% (w/v) emulsion. Further, the resulting 0.1% (w/v) emulsion was diluted with the diluent to give a 0.03% (w/v) emulsion. Further, the resulting 0.03% (w/v) emulsion was diluted with the diluent to give a 0.01% (w/v) emulsion.
EV06 was sonicated with the addition of Vehicle A to give a 1.5% (w/v) solution, which was used for comparison to Compound 1 sample.
1) Each test sample (2.5 μL/eye) was instilled into the right eye of 8-month-old C57BL/6J mice with a Pipetman once per day (around 9:00) for 14 days. 2) After the final instillation, the mice were euthanized by carbon dioxide inhalation, and then the eyeballs were extracted and rinsed with Hank's balanced salt solution (HESS). 3) The sclera near the optic nerve was cut with a razor, the lens was removed through the incision, and the removed lens was immersed in HESS. 4) The lens was placed on a glass slide, and an all-in-one fluorescence microscope BZ-9000 (Keyence) was used to capture an image of the lens (Image a). 5) Next, one cover glass (Corning^(registered trade mark) 22×22 mm Square) was placed on the lens, and an image in which the thickness of the lens changed due to the weight was similarly captured (Image b). 6) A change in the lens diameter was calculated from the following Equation 1 wherein the lens diameter of Image a is subtracted from the lens diameter of Image b. Then, the lens elasticity improvement of each sample group compared with the vehicle control group was calculated from Equation 2 described below. The mean value of the vehicle control group was based on 5 eyes, the mean value of each of the sample groups of compound 1 and EV06 was based on 10 eyes.
Change in lens diameter=Lens diameter in Image b of each test sample−Lens diameter in Image a of each test sample (Equation 1)
Lens elasticity improvement of each sample group=Mean change in lens diameter of each Test sample group−Mean change in lens diameter of Vehicle control group (Equation 2)

CC(C)=CCOC(=O)CCCC[C@@H]1CCSS1 [Compound 1, 3-Methyl-2-buten-1-yl (R)-5-(1,2-dithiolan-3-yl)pentanoate]
slit lamp examination [1]: No abnormalities were observed | irritation in anterior segment of the eye [1]: No irritation was observed | Irritation Score of anterior segment of the eye: Bulbar conjunctival hyperemia ([1]; 0.03% eye drop): — | Irritation Score of anterior segment of the eye: Discharge ([1]; 0.03% eye drop): — | Irritation Score of anterior segment of the eye: Flare of palpebral conjunctiva ([1]; 0.03% eye drop): — | Irritation Score of anterior segment of the eye: Hyperemia of nictitating membrane ([1]; 0.03% eye drop): — | Irritation Score of anterior segment of the eye: Palpebral conjunctival edema ([1]; 0.03% eye drop): — | Slit lamp observation ([1]; 0.03% eye drop): — | Irritation Score of anterior segment of the eye: Bulbar conjunctival hyperemia ([1]; 0.3% eye drop): — | Irritation Score of anterior segment of the eye: Discharge ([1]; 0.3% eye drop): — | Irritation Score of anterior segment of the eye: Flare of palpebral conjunctiva ([1]; 0.3% eye drop): — | Irritation Score of anterior segment of the eye: Hyperemia of nictitating membrane ([1]; 0.3% eye drop): — | Irritation Score of anterior segment of the eye: Palpebral conjunctival edema ([1]; 0.3% eye drop): — | Slit lamp observation ([1]; 0.3% eye drop): — | Histopathological examination of the eye ([2]; 0.03% eye drop): — | Irritation Score of anterior segment of the eye: Angiogenesis ([2]; 0.03% eye drop): — | Irritation Score of anterior segment of the eye: Anterior chamber flare ([2]; 0.03% eye drop): — | Irritation Score of anterior segment of the eye: Conjunctival edema ([2]; 0.03% eye drop): — | Irritation Score of anterior segment of the eye: Conjunctival hyperemia ([2]; 0.03% eye drop): — | Irritation Score of anterior segment of the eye: Corneal epithelial disorder ([2]; 0.03% eye drop): — | Irritation Score of anterior segment of the eye: Corneal opacity ([2]; 0.03% eye drop): — | Irritation Score of anterior segment of the eye: Discharge ([2]; 0.03% eye drop): — | Irritation Score of anterior segment of the eye: Iris ([2]; 0.03% eye drop): — | Irritation Score of anterior segment of the eye: Light reflex ([2]; 0.03% eye drop): — | Lens ([2]; 0.03% eye drop): — | ocular irritation ([2]; 0.03%, 0.1% and 0.3% eye drops, twice per day for 2 weeks): No ocular irritation was observed | Histopathological examination of the eye ([2]; 0.1% eye drop): — | Irritation Score of anterior segment of the eye: Angiogenesis ([2]; 0.1% eye drop): — | Irritation Score of anterior segment of the eye: Anterior chamber flare ([2]; 0.1% eye drop): — | Irritation Score of anterior segment of the eye: Conjunctival edema ([2]; 0.1% eye drop): — | Irritation Score of anterior segment of the eye: Conjunctival hyperemia ([2]; 0.1% eye drop): — | Irritation Score of anterior segment of the eye: Corneal epithelial disorder ([2]; 0.1% eye drop): — | Irritation Score of anterior segment of the eye: Corneal opacity ([2]; 0.1% eye drop): — | Irritation Score of anterior segment of the eye: Discharge ([2]; 0.1% eye drop): — | Irritation Score of anterior segment of the eye: Iris ([2]; 0.1% eye drop): — | Irritation Score of anterior segment of the eye: Light reflex ([2]; 0.1% eye drop): — | Lens ([2]; 0.1% eye drop): — | Histopathological examination of the eye ([2]; 0.3% eye drop): — | Irritation Score of anterior segment of the eye: Angiogenesis ([2]; 0.3% eye drop): — | Irritation Score of anterior segment of the eye: Anterior chamber flare ([2]; 0.3% eye drop): — | Irritation Score of anterior segment of the eye: Conjunctival edema ([2]; 0.3% eye drop): — | Irritation Score of anterior segment of the eye: Conjunctival hyperemia ([2]; 0.3% eye drop): — | Irritation Score of anterior segment of the eye: Corneal epithelial disorder ([2]; 0.3% eye drop): — | Irritation Score of anterior segment of the eye: Corneal opacity ([2]; 0.3% eye drop): — | Irritation Score of anterior segment of the eye: Discharge ([2]; 0.3% eye drop): — | Irritation Score of anterior segment of the eye: Iris ([2]; 0.3% eye drop): — | Irritation Score of anterior segment of the eye: Light reflex ([2]; 0.3% eye drop): — | Lens ([2]; 0.3% eye drop): — | Lens elasticity improvement (lens elasticity; 0.01% (w/v) emulsion): 12.2 μm | Lens elasticity improvement (lens elasticity; 0.03% (w/v) emulsion): 33.8 μm | lens elasticity improvement compared with 1.5% EV06 group (lens elasticity; 0.03%, 0.1% and 0.3% sample groups, instilled once-daily): excellent results compared to 1.5% EV06 group | Lens elasticity improvement (lens elasticity; 0.1% (w/v) emulsion): 34.1 μm | Lens elasticity improvement (lens elasticity; 0.3% (w/v) emulsion): 39.8 μm

O=C(CCCC[C@@H]1CCSS1)OCCN1CCN(CCO)CC1 [Compound 3]
slit lamp examination [1]: No abnormalities were observed | irritation in anterior segment of the eye [1]: low | Irritation Score of anterior segment of the eye: Bulbar conjunctival hyperemia ([1]; 0.03% eye drop): +1 | Irritation Score of anterior segment of the eye: Discharge ([1]; 0.03% eye drop): +1 | Irritation Score of anterior segment of the eye: Flare of palpebral conjunctiva ([1]; 0.03% eye drop): +1 | Irritation Score of anterior segment of the eye: Hyperemia of nictitating membrane ([1]; 0.03% eye drop): +1 | Irritation Score of anterior segment of the eye: Palpebral conjunctival edema ([1]; 0.03% eye drop): +0.5 | Slit lamp observation ([1]; 0.03% eye drop): — | Irritation Score of anterior segment of the eye: Bulbar conjunctival hyperemia ([1]; 0.3% eye drop): +1 and +2 | Irritation Score of anterior segment of the eye: Discharge ([1]; 0.3% eye drop): +1 | Irritation Score of anterior segment of the eye: Flare of palpebral conjunctiva ([1]; 0.3% eye drop): +1 | Irritation Score of anterior segment of the eye: Hyperemia of nictitating membrane ([1]; 0.3% eye drop): +1 | Irritation Score of anterior segment of the eye: Palpebral conjunctival edema ([1]; 0.3% eye drop): +1 and +0.5 | Slit lamp observation ([1]; 0.3% eye drop): —

C[N+](C)(C)CCOC(=O)CCCC[C@@H]1CCSS1.[Cl-] [EV06, Lipoic acid choline ester, reference compound]
Lens elasticity improvement (lens elasticity; 1.5% (w/v) solution in Vehicle A): 5.8 μm
